Consider three molecules from article PMC6387968, “An in vitro ADME and in vivo Pharmacokinetic Study of Novel TB-Active Decoquinate Derivatives” (Frontiers in Pharmacology, 2019).

Each structure is given as a SMILES string.

Data set [1] is described as follows: in vitro. In kind it is in vitro ADME. Conditions: microsomes. The method, then:
RMB041, -043, and -073 ([…]) prepared in DMSO were incubated separately with 530 μL mouse and human microsomes (0.4 mg/mL) at 37°C with the cofactor NADPH (1 mM). Compounds were assessed at 0 and 60 min. The reaction was stopped by the addition of ice-cold ACN containing IS (carbamazepine, 23.6 ng/mL). The samples were analyzed via LC-MS/MS using the instrumentation and conditions described above. The in vitro half-life, intrinsic clearance rate, and hepatic extraction ratio were predicted using results from this assay in the following equations ([Obach, 1999]). Metabolic stability was assessed as the compound’s depletion from a starting concentration of […] over 1 h in mouse and human microsomal fractions. The in vitro half-life can be predicted from this assay. The linear regression from a graph relating natural logarithmic percentage of the compound remaining versus the incubation time was used to calculate the half-life, CLint, and EH.

The nature of data set [2]: in vivo. More on the design: species or system male C57BL/6 mice. Conditions: for Vd / clearance / half-life / t1/2 / Cmax / Tmax: male, C57BL/6, mouse; for AUC: mouse. The method, then:
Healthy male C57BL/6 mice, 12 to 16 weeks old, weighing approximately 30 g, were maintained at the animal facility of the University of Cape Town. Mice were fed a standard laboratory diet and water ad libitum. Mice were housed in 27 × 21 × 18 cm cages, under controlled environmental conditions (26 ± 1°C with 12-h light/dark cycles). Mice were acclimatized to their experimental environment for 4 days before the experiment started.
Clear suspensions of RMB041, -043, and -073 were prepared in […] hydroxypropyl methylcellulose and administered via oral gavage (20 mg/kg, volume = 200 μL, n = 3). Blood samples (20 μL) were collected on ice in heparinized microvials via tail bleeding at 0, 0.5, 1, 3, 5, 8, 10, 24, and 48 h following drug administration and stored at -80°C.
Solutions for IV injection (5 mg/kg) were prepared using a mixture of dimethyl acetamide, polyethylene glycol, and polypropylene glycol (1:3:6, v/v) and were injected into the penile vein (80 μL) following anesthesia of mice with intraperitoneal injection (IP) of ketamine/xylazine (75–100 mg/kg + 10 mg/kg; n = 3). Blood samples were collected on ice in heparinized microvials via tail bleeding at 0.083, 0.5, 1, 3, 5, 8, 10, 24, and 48 h following drug administration and stored at -80°C.
Mouse whole-blood samples (20 μL) were each treated with 100 μL ACN containing IS (carbamazepine, 1 μg/mL) to precipitate blood proteins, and were subjected to vigorous vortexing for 1 min and centrifugation at 5590 × g for 5 min. The supernatant layer containing compound (50 μL) was removed from each sample and added to the analysis plate. Thereafter, samples were dried down under nitrogen. A solution of ACN and water (1:1, v:v, 100 μL) was added to each well, and samples were analyzed via LC-MS/MS.
To determine compound concentrations in mouse whole-blood samples, seven calibration samples (range 0.980 to 4000 ng/mL), as well as low-, medium-, and high-concentration quality control (QC) samples (3, 1600, and 3200 ng/mL, respectively) were prepared in mouse blood and subjected to ACN precipitation as described above, in triplicate. Calibration, QC, and test samples were analyzed via LC-MS/MS. Calibration samples were used to plot standard curves, from which test sample concentrations were calculated via quadratic regression (weighting factor = 1/x).
A reverse-phase HPLC column (Gemini NX, C18, 2.6 μm, 50 × 2.1 mm, Phenomenex) was used to separate the compounds and IS (mobile phase B, 0.1% FA in ACN; mobile phase A, 0.1% FA in analytical-grade water). Auto-sampling was performed using an Agilent 1200 series auto-sampler. Data acquisition and evaluation were performed using the Analyst 1.6.2 software (Applied Biosystems, Foster City, CA, United States).
Plots of concentration against time were used to determine the maximal drug concentration (Cmax), time at which Cmax is reached (Tmax), area-under-the-curve from time zero to infinity (AUC0-∞), and the elimination half-life (t1/2). Using these values, the clearance, volume of distribution, and oral bioavailability (BA) were calculated using the non-compartmental analysis (NCA) software PK Solutions version 2.0 (Summit Research Services, Montrose, CO, United States).
The drug concentrations indicated in Figure 2–7 were used to calculate the PK parameters in Table 6 via NCA. Here, the area under the murine whole-blood concentration-time graph is divided into sequential trapezoids that are summed to determine the AUC, which is used to determine t1/2, apparent volume of distribution (Vd), clearance, and percentage BA.

A word on the half-life: it is the time needed for the level to fall by half in the phase considered. Higher therefore signals slow decline. A word on the microsomal CLint: it is the capacity of the preparation to metabolise the compound, expressed as a volume cleared per time. Low values mean slow turnover, high ones rapid turnover. In general, Vd refers to a proportionality between amount in the body and measured concentration, not a real space. For orientation: clearance means a measure of how efficiently the substance is removed, as volume per time. The low end stands for inefficient removal, the high end for efficient removal. Broadly, the Cmax is the maximum level reached in the sampled fluid or tissue. As usually defined, the Tmax is the time from dosing to the highest level. What is called AUC is concentration integrated over time. Low values mean less exposure, high ones more exposure. In data set [1], `CCCCCCCCCCOc1cc2c(=O)c(C(=O)NCCOCCO)cn(CCO)c2cc1OCC` [RMB073] came in with a half-life at 0.1 M of more than 2.5 h and an intrinsic clearance (microsomal CLint) at 0.1 M of less than 20 µL/min/mg. In data set [2] (iv, 5 mg/kg), the distribution volume (Vd) is 3.9 ± 0.5 L/kg, the clearance is 0.575 mL/min/kg, the half-life is 15.3 ± 3.2 h and the “t1/2” value is 15.3 ± 3.2 h. This molecule also returned an area under the curve (AUC) in data set [2] (iv, 5 mg/kg) of 15940.0 ± 400.0 µmol·min/L. In data set [2] (po, 20 mg/kg), the Cmax amounted to 2 ± 0.03 µM, the Tmax stood at 0.5 h and the half-life was 11.6 ± 1.3 h.

As to `CCCCCCCCCCOc1cc2c(=O)c(C(=O)NCCOCCO)cn(CC)c2cc1OCC` [RMB041], in data set [1], the half-life at 0.1 M was more than 2.5 h and the microsomal CLint at 0.1 M is less than 20 µL/min/mg. Also, in data set [2] (iv, 5 mg/kg), the volume of distribution (Vd) stood at 1.2 ± 0.03 L/kg, the clearance is 0.385 mL/min/kg, the half-life is 62.3 ± 6.73 h and the “t1/2” value was 62.3 ± 6.7 h. For the same molecule, in data set [2] (iv, 5 mg/kg), the exposure (AUC) came out at 29250.4 ± 309.0 µmol·min/L. Besides, in data set [2] (po, 20 mg/kg), the concentration peaked (Cmax) at 5.4 ± 0.4 µM, the Tmax was found to be 0.5 h and the half-life is 23.4 ± 2.5 h.

Take `CCCCCCCCCCOc1cc2c(=O)c(C(=O)NCCNCCO)cn(CC)c2cc1OCC` [RMB043]: in data set [1], the half-life at 0.1 M was less than 1.67 h and the microsomal CLint at 0.1 M was less than 110 µL/min/mg. Moreover, in data set [2] (iv, 5 mg/kg), the Vd turned out to be 4.6 ± 1.6 L/kg, the clearance was 1.18 mL/min/kg, the half-life is 8.6 ± 0.4 h and the “t1/2” value is 8.6 ± 0.4 h. Moreover, the AUC in data set [2] (iv, 5 mg/kg) was determined as 10068.4 ± 127.8 µmol·min/L. Moreover, in data set [2] (po, 20 mg/kg), the highest level (Cmax) was 5.6 ± 1.4 µM, the time of peak concentration (Tmax) is 0.5 h and the half-life was 6.2 ± 0.8 h.
